Measurements taken from patent US20210161851A1, “COMBINATION THERAPY OF LYMPHOMA” (Deutsches Krebsforschungszentrum, priority 2019, published 2021).

Key:
[1] = tested on: caspase 3 cleavage in HH cells; assay: Western blot of caspase 3 cleavage in HH cells; type: cell-based; details: 100 or 1000 nM ABT-199, 50 μM DMF
Excerpt: (§1) ABT-199, ABT-263 and the mouse antibody against human Bcl-2 were obtained from Santa Cruz Biotechnology. DMF and monomethyl fumarate (MMF) were purchased from Sigma-Aldrich. Caspase-3 and cleaved-Caspase-3 antibodies came from Cell Signaling Technology, Ki-67 antibodies from Novacastra. Primary CD4+ T cells were isolated from heparinized whole blood and treated as indicated (Nicolay et al. (2016), Blood 128(6):805-815). Cell lines were obtained from ATCC (HH, J16) or generously donated by Drs. Gniadecki and Pless from Bispebjerg Hospital Copenhagen, Denmark and Dr. Kaltoft, Aarhus University Denmark (SeAx) or Prof. Eichmuiller from DKFZ Heidelberg, Germany (MyLa), and cultured as described (Nikolay et al, ibd.)
(§2) 1.3 Cell Death Assays, Quantitative Reverse Transcript (qRT) PCR, Western Blot were Performed as According to Standard Methods.

[2] = tested on: Bcl-2; assay: Western blot of Bcl-2 family protein levels upon NFκB inhibition; type: cell-based, human; details: J16, HH and SeAx cells
Excerpt: as §1, §2

[3] = tested on: Bax/Bak interaction in HH cells; assay: Proximity ligation assay (PLA) of Bax/Bak in HH cells; type: cell-based
Procedure: (§3) In order to determine protein interactions a proximity ligation assay was performed with Duolink® PLA by Sigma-Aldrich as described before (Schroeder et al. (2017), Nat. Publ. Gr. October 2016:1-12). The rabbit antibody against Bak and the mouse antibody against Bax were obtained from Abcam.

[4] = tested on: SeAx xenograft tumors; assay: Orthotopic SeAx xenograft CTCL mouse model: tumor growth and survival; type: in vivo, NSG mice; details: for tumor growth: ABT-199 100 mg/kg once oral, DMF 30 mg/kg i.p. once daily for 28 days; for overall survival: SeAx xenograft NSG mice; for animals still under follow-up (survival rate): day 30, one day after the end of the treatment phase
Procedure: (§4) All animal experiments were in accordance with the approved guidelines of the local Governmental Committee for Animal Experimentation (RP Karlsruhe, Germany, license G282/15). Mice were maintained at a 12 h light-dark cycle with unrestricted diet and water. Under isoflurane inhalation anesthesia (1-1.5% in O2, 0.5 L/min), 3×10^6 SeAx cells suspended in 30 μl of PBS/Matrigel (1:1, v/v) were injected intradermally (i.d.) into the right flank of 6-7-week-old female NOD SCID gamma (NSG) mice recruited from the Center for Preclinical Research, DKFZ, Heidelberg and kept on Kliba diet 3307 with n=8 mice/group. When tumors reached palpable size (mean of 0.025 cm^3) mice were randomized and treated first as indicated once by oral gavage with ABT-199 dissolved in a vehicle of […], 30% polyethylenglycol 400 and 10% ethanol at a concentration of 100 mg/kg body weight, 10 μl/g mouse or vehicle alone as indicated. One day later, intraperitoneal (i.p.) treatment with DMF once daily for 28 days was started as indicated. The compound, dissolved at 3 mg/ml in 30° C. pre-warmed PBS, was given with 10 μl/g mouse at a dose of 30 mg/kg bodyweight. For control, PBS (10 μl/g mouse) was injected. Tumor volume was measured with a caliper 2-3 times a week and calculated according to the formula: V=(length (mm)×width (mm)^2)/2. Necropsies were taken when one tumor diameter reached 1.5 cm or when mice reached stop criterion of the German Society of Laboratory Animal Sciences (GV-SOLAS), here defined as survival. For tissue staining, the liver and a quarter of the tumor was fixed in 4% PBS-buffered formaldehyde and embedded into paraffin according to routine procedures.

[5] = tested on: SeAx xenograft tumors; assay: Histology and immunohistochemistry of SeAx xenograft tumors; type: in vivo, NSG mice; details: for Ki-67 positivity (proliferation index) / caspase 3 cleavage within the xenograft tumors: immunohistochemistry, 400×
Procedure: as §4
Hematoxylin and eosin staining as well as immunohistochemistry were performed on 5 μm paraffin sections as described. For immunohistochemical stainings, paraffin-embedded tissue was sectioned into 5 μm slices. Ki-67 was detected in deparaffinized tissue specimens after antigen retrieval (20 min at boiling temperature in 10 mM sodium citrate pH 6.0), block of endogenous peroxidases in 3% H2O2 in PBS for 10 min, block in 100% goat serum for 1 h at room temperature (RT) and incubation overnight at 4° C. in a 1:250 dilution of anti-Ki-67 antibodies (NCL-Ki67p, Novacastra). Slides were incubated with appropriate horse-radish peroxidase (HRP)-coupled secondary antibody (1:200) for 1 h at RT, incubated with HRP substrate solution (DAB/H2O2, Sigma, Munich/Germany). Nuclei were counterstained with hematoxylin for 1 min. Mounting was in Eukitt (R. Langenbrinck, Teningen/Germany). Sections incubated without primary antibody were included as negative controls.
Immunohistochemical assessment of the tissue slides was performed by a dermatologist (JPN) and a pathologist (TA).
For microscopy, the following Nikon objective lenses were used (Nikon, Tokio, Japan): Nikon Plan Apoλ 2×/0.1, Nikon Plan Apoλ 20×/0.75. Microscopy was performed at 22° C. throughout with cryopreserved or paraffin sections. As fluorochromes phycoerythrin (PE), fluorescein-isothiocyanate (FITC) and DAPI were used for red, green and blue stainings, respectively. The micrographs were taken with a Nikon DS-Fi2 camera using the Nikon DS-L3 software.

[6] = target: Bcl-xL (Homo sapiens, UniProt Q07817); details: inhibition of Bcl-xL; cited from earlier work
[7] = tested on: primary CD4+ CTCL cells; assay: Cell death assay in primary CD4+ CTCL cells of Sezary patients; type: cell-based, human; details: increasing concentrations, 24 h and 48 h
Procedure: (§5) Seven patients with Sezary syndrome (CTCL stage IV) diagnosed according to WHO-EORTC classification of CTCL and criteria of the international society of cutaneous lymphomas were included in the study. As controls, we investigated blood samples of healthy donors (n=7). Informed consent was obtained from all subjects before inclusion. The study was conducted according to ethical guidelines at our institution and the Helsinki Declaration and was approved by the ethics committee II of the University of Heidelberg.
as §1, §2

[8] = tested on: primary healthy CD4+ T cells; assay: Cell death assay in primary CD4+ cells of healthy donors; type: cell-based, human; details: different concentrations
Procedure: as §5, §1, §2

[9] = tested on: SeAx cells; assay: Cell death assay in CTCL cell line SeAx; type: cell-based; details: different concentrations, 24 h
Excerpt: as §1, §2

[10] = tested on: MyLa cells; assay: Cell death assay in CTCL cell line MyLa; type: cell-based
Excerpt: as §1, §2

[11] = tested on: J16 cells; assay: Cell death assay in non-CTCL cell line J16; type: cell-based; details: different concentrations, 24 h
Excerpt: as §1, §2

[12] = tested on: HH cells; assay: Cell death assay in CTCL cell line HH; type: cell-based; details: different concentrations, 24 h
Excerpt: as §1, §2

[13] = tested on: caspase 3 cleavage in SeAx cells; assay: Western blot of caspase 3 cleavage in SeAx cells; type: cell-based; details: 100 or 1000 nM ABT-199, 50 μM DMF
Excerpt: as §1, §2

[14] = tested on: Bax/Bak interaction in SeAx cells; assay: Proximity ligation assay (PLA) of Bax/Bak in SeAx cells; type: cell-based
Procedure: as §3

Sequence of Bcl-xL (Q07817 whole entry, species assumed): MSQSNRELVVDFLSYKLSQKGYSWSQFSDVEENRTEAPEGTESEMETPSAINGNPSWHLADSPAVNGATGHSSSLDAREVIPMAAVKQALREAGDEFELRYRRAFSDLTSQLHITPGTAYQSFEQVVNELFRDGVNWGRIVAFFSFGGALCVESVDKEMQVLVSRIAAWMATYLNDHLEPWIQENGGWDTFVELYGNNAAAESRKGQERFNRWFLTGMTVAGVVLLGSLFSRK

Structure (SMILES) | caspase 3 cleavage [1] | protein levels of Bcl-2 or other anti-apoptotic Bcl-2 family members like Mcl-1 [2] | Bax/Bak interaction (PLA) [3] | tumor growth [4] | overall survival [4] | animals still under follow-up (survival rate) [4] [%] | mitotic activity (mitosis figures in H&E specimens) ([5]; 200× magnification) | Ki-67 positivity (proliferation index) [5] | caspase 3 cleavage within the xenograft tumors [5] | number of circulating platelets [6] | specific cell death [7] | cell death effect [8] | cell death sensitivity [9] | cell death sensitivity [10] | cell death sensitivity [11] | cell death response [12] | caspase 3 cleavage [13] | green fluorescence (Bax/Bak interaction, PLA) [14] | animals dropped out of the group ([4]; within the first 10 days after monotreatment, ABT-199 100 mg/kg once by oral gavage, n=8)
COC(=O)/C=C/C(=O)OC [DMF, Dimethyl (E)-butenedioate] | could induce significant caspase 3 cleavage | no influence | had no effect | weak, but not significant decrease in tumor growth | overall survival benefit | 13 | significant decrease in mitotic activity | slightly reduced positivity for Ki-67 | slightly increased caspase 3 cleavage | – | – | – | – | – | – | – | – | – | –
CN(C)CC[C@H](CSc1ccccc1)Nc1ccc(S(=O)(=O)NC(=O)c2ccc(N3CCN(Cc4ccccc4-c4ccc(Cl)cc4)CC3)cc2)cc1[N+](=O)[O-] [ABT-737, 4-[4-[(4′-chloro[1,1′-biphenyl]-2-yl)methyl]-1-piperazinyl]-N-[[4-[[(1R)-3-(dimethylamino)-1-[(phenylthio)methyl]propyl]amino]-3-nitrophenyl]sulfonyl]-Benzamide] | – | – | – | – | – | – | – | – | – | concentration-dependent decrease in the number of circulating platelets | – | – | – | – | – | – | – | – | –
CC1(C)CCC(c2ccc(Cl)cc2)=C(CN2CCN(c3ccc(C(=O)NS(=O)(=O)c4ccc(N[C@H](CCN5CCOCC5)CSc5ccccc5)c(S(=O)(=O)C(F)(F)F)c4)cc3)CC2)C1 [ABT-263, (R)-4-(4-((4′-chloro-4,4-dimethyl-3,4,5,6-tetrahydro-[1,1′-biphenyl]-2-yl)methyl)piperazin-1-yl)-N-((4-((4-morpholino-1-(phenylthio)butan-2-yl)amino)-3-((trifluoromethyl)sulfonyl)phenyl)sulfonyl)benzamide] | – | – | – | – | – | – | – | – | – | concentration-dependent decrease in the number of circulating platelets | dose-dependent specific CD4+ T cell death after 24 h and 48 h with significantly higher rates in Sezary patients' cells than in those from healthy donors | weak effect | high cell death sensitivity | high cell death sensitivity | by far attenuated cell death sensitivity | barely any response | – | – | –
CC1(C)CCC(CN2CCN(c3ccc(C(=O)NS(=O)(=O)c4ccc(NCC5CCOCC5)c([N+](=O)[O-])c4)c(Oc4cnc5[nH]ccc5c4)c3)CC2)=C(c2ccc(Cl)cc2)C1 [ABT-199, 4-[4-[[2-(4-chlorophenyl)-4,4-dimethyl-1-cyclohexen-1-yl]methyl]-1-piperazinyl]-N-[[3-nitro-4-[[(tetrahydro-2H-pyran-4-yl)methyl]amino]phenyl]sulfonyl]-2-(1H-pyrrolo[2,3-b]pyridin-5-yloxy)-Benzamide] | had no effect | – | had no effect | weak, but not significant decrease in tumor growth | no advantage with respect to survival | 0 | – | slightly reduced positivity for Ki-67 | slightly increased caspase 3 cleavage | – | dose-dependent specific CD4+ T cell death after 24 h and 48 h with significantly higher rates in Sezary patients' cells than in those from healthy donors | weak effect | high cell death sensitivity | high cell death sensitivity | by far attenuated cell death sensitivity | barely any response | dose-dependent caspase 3 cleavage | significant increase in green fluorescence | 3/8
